Like-named read-outs stand apart in the source and are kept apart here.

One experiment has as its target Mcl-1 protein (UniProtKB Q07820) (Homo sapiens (Human), UniProt Q07820). As to the kind of experiment: Inhibition of Mcl-1 by the fluorescence polarisation assay (Example A, Method A). The format is binding. The conditions noted are these: fluorescence polarization assay. The gist of the method: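 Protein (5 nM) and fluorescein-tagged peptide tracer (1 nM) incubated with 11-point compound series for 2 h at room temperature in HEPES/NaCl/Tween 20 buffer, pH 7.4, 5% DMSO. Displacement read as decrease in polarisation; IC50 fitted by 4-parameter logistic, converted to Ki (cKi or eKi).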
For orientation: Polarisation of emitted light reports the rotation of a fluorescent probe.

For experiment [1], the system named is H929 multiple myeloma tumor line. Kind of experiment: In vitro cytotoxicity, MTT assay (Example B, Method A). The format is cell-based. The settings on record: H929 cells, 48 hours exposure, read-out: C50. Here is the method:
The cytotoxicity studies were carried out on the H929 multiple myeloma tumor line.
The cells are distributed onto microplates and exposed to the test compounds for 48 hours. The cell viability is then quantified by a colorimetric assay, the Microculture Tetrazolium Assay (Carmichael et al, Cancer Res. 1987, 47, 939-942).
The results are expressed in C50 which means concentration corresponding to […] of effect/inhibition.
(In general: Formazan colour is commonly taken as a measure of viable cells.)

Chain of Mcl-1 protein (Q07820 whole entry): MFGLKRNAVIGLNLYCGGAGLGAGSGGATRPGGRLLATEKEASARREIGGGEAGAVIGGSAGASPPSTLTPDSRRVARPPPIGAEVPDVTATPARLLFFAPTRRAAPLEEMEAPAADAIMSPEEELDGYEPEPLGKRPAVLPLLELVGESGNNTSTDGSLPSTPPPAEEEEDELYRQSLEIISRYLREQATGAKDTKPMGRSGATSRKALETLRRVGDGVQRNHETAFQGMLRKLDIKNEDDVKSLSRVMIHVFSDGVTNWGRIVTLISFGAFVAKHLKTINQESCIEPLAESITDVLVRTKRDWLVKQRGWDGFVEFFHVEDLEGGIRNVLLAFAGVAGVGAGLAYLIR

Regarding `Cc1cccc(C2Cc3ccccc3[C@]23CC[C@@](Nc2cccc(Cl)c2)(C(=O)O)CC3)c1` (single isomer, unassigned) [Example 345, (1r,4r)-4-(3-chloroanilino)-2′-(3-methylphenyl)-2′,3′-dihydrospiro[cyclohexane-1,1′-indene]-4-carboxylic acid], the inhibition constant (Ki) (as a rule, the dissociation constant of the complex between target and ligand, obtained from inhibition or displacement) at Mcl-1 protein was found to be 1240 nM. For the same compound, the IC50 in experiment [1] (Homo sapiens, NCI-H929, 48 h) is 30000 nM.
In the same order, the values of `O=C(O)[C@]1(Nc2cccc(Cl)c2)CC[C@@]2(CC1)c1ccccc1C[C@H]2CCCOc1ccnc2ccsc12` [Example 439, (1r,2′R,4R)-4-(3-chloroanilino)-2′-{3-[(thieno[3,2-b]pyridin-7-yl)oxy]propyl}-2′,3′-dihydrospiro[cyclohexane-1,1′-indene]-4-carboxylic acid] are 68.6 nM and 3880 nM.
On the same counts, the results for `C[C@@H](COc1ncnc2c1CCC2)CC1Cc2ccccc2[C@]12CC[C@@](Nc1cccc(Cl)c1)(C(=O)O)CC2` (stereo partly drawn) [Example 593, (1r,4R)-4-(3-chloroanilino)-2′-{(2R)-3-[(6,7-dihydro-5H-cyclopenta[d]pyrimidin-4-yl)oxy]-2-methylpropyl}-2′,3′-dihydrospiro[cyclohexane-1,1′-indene]-4-carboxylic acid] are 14.5 nM and 2010 nM.
In the same order, the values of `C[C@@H](COc1ccnc2c1CCC2)CC1Cc2ccccc2[C@]12CC[C@@](Nc1ccccc1)(C(=O)O)CC2` (stereo partly drawn) [Example 596, (1r,4R)-4-anilino-2′-{(2R)-3-[(6,7-dihydro-5H-cyclopenta[b]pyridin-4-yl)oxy]-2-methylpropyl}-2′,3′-dihydrospiro[cyclohexane-1,1′-indene]-4-carboxylic acid] are 31.2 nM and 1820 nM.
As to `O=C(O)[C@]1(Nc2cccc(Cl)c2)CC[C@@]2(CC1)c1ccccc1C[C@@H]2C[C@@H](COc1cccnc1)c1ccccc1` [Example 548, (1r,2′S,4S)-4-(3-chloroanilino)-2′-{(2R)-2-phenyl-3-[(pyridin-3-yl)oxy]propyl}-2′,3′-dihydrospiro[cyclohexane-1,1′-indene]-4-carboxylic acid], the Ki at Mcl-1 protein worked out at 995 nM. The IC50 in experiment [1] (Homo sapiens, NCI-H929, 48 h) amounted to 30000 nM.
In the same order, the values of `O=C(O)[C@]1(Nc2cccc(Cl)c2)CC[C@@]2(CC1)c1ccccc1C[C@H]2C[C@H](COc1ccccc1)c1ccccc1` [Example 557, (1r,2′R,4R)-4-(3-chloroanilino)-2′-[(2S)-3-phenoxy-2-phenylpropyl]-2′,3′-dihydrospiro[cyclohexane-1,1′-indene]-4-carboxylic acid] are 1270 nM and 20100 nM.
On the same counts, the results for `C[C@@H](COc1ccnc2c1CCCCC2)C[C@H]1Cc2ccccc2[C@]12CC[C@@](Nc1cccc(Cl)c1)(C(=O)O)CC2` [Example 633, (1r,2′S,4S)-4-(3-chloroanilino)-2′-{(2R)-2-methyl-3-[(6,7,8,9-tetrahydro-5H-cyclohepta[b]pyridin-4-yl)oxy]propyl}-2′,3′-dihydrospiro[cyclohexane-1,1′-indene]-4-carboxylic acid] are 5.3 nM and 371 nM.
In the same order, the values of `O=C(O)[C@]1(Nc2cccc(Cl)c2)CC[C@@]2(CC1)c1ccccc1CC2CCCOc1ccncc1C(F)(F)F` (some centres unmarked) [Example 463, (1r,4r)-4-(3-chloroanilino)-2′-(3-{[3-(trifluoromethyl)pyridin-4-yl]oxy}propyl)-2′,3′-dihydrospiro[cyclohexane-1,1′-indene]-4-carboxylic acid] are 59.2 nM and 8230 nM.
In the case of `CC(C)C(COc1cccnc1)CC1Cc2ccccc2[C@]12CC[C@@](Nc1cccc(Cl)c1)(C(=O)O)CC2` (single isomer, unassigned) [Example 527, (1r,4r)-4-(3-chloroanilino)-2′-(3-methyl-2-{[(pyridin-3-yl)oxy]methyl}butyl)-2′,3′-dihydrospiro[cyclohexane-1,1′-indene]-4-carboxylic acid], the inhibition constant (Ki) on Mcl-1 protein turned out to be 8940 nM. Moreover, the IC50 in experiment [1] came to 16400 nM.
For the compound `CC1CCc2nccc(OC[C@H](C)CC3Cc4ccccc4[C@]34CC[C@@](Nc3cccc(Cl)c3)(C(=O)O)CC4)c21` (mixture of isomers) [Example 602, (1r,4R)-4-(3-chloroanilino)-2′-{(2R)-2-methyl-3-[(5-methyl-6,7-dihydro-5H-cyclopenta[b]pyridin-4-yl)oxy]propyl}-2′,3′-dihydrospiro[cyclohexane-1,1′-indene]-4-carboxylic acid], the inhibition constant (Ki) on Mcl-1 protein turned out to be 3.37 nM. In addition, the IC50 in experiment [1] (Homo sapiens, NCI-H929, 48 h) is 518 nM.
On the same counts, the results for `C[C@@H](COc1ccnc2ccsc12)C[C@@H]1Cc2ccccc2[C@]12CC[C@@](Nc1cccc(Cl)c1)(C(=O)O)CC2` [Example 590, (1r,2′R,4R)-4-(3-chloroanilino)-2′-{(2R)-2-methyl-3-[(thieno[3,2-b]pyridin-7-yl)oxy]propyl}-2′,3′-dihydrospiro[cyclohexane-1,1′-indene]-4-carboxylic acid] are 19.2 nM and 1170 nM.
On the same counts, the results for `C[C@@H]1Cc2ccccc2[C@]12CC[C@@](Nc1cccc(Br)c1)(C(=O)O)CC2` [Example 144, (1r,2′R,4R)-4-(3-bromoanilino)-2′-methyl-2′,3′-dihydrospiro[cyclohexane-1,1′-indene]-4-carboxylic acid] are 182 nM and 30000 nM.
In the same order, the values of `C[C@@H](COc1ncnc2c1C(C)(C)CC2)CC1Cc2ccccc2[C@]12CC[C@@](Nc1cccc(Cl)c1)(C(=O)O)CC2` (stereo partly drawn) [Example 595, (1r,4R)-4-(3-chloroanilino)-2′-{(2R)-3-[(5,5-dimethyl-6,7-dihydro-5H-cyclopenta[d]pyrimidin-4-yl)oxy]-2-methylpropyl}-2′,3′-dihydrospiro[cyclohexane-1,1′-indene]-4-carboxylic acid] are 29.9 nM and 1510 nM.
As to `O=C1c2ccccc2[C@]2(CC[C@@](Nc3cccc(Cl)c3)(C(=O)O)CC2)N1CCCOc1ccccc1` [Example 34, (1s,4s)-4-(3-chloroanilino)-3′-oxo-2′-(3-phenoxypropyl)-2′,3′-dihydrospiro[cyclohexane-1,1′-isoindole]-4-carboxylic acid], the inhibitory constant (Ki) on Mcl-1 protein is 648 nM. The IC50 in experiment [1] (Homo sapiens, NCI-H929, 48 h) came out at 30000 nM.
Consider `Cc1cnccc1OCCC[C@H]1Cc2ccccc2[C@]12CC[C@@](Nc1cccc(Cl)c1)(C(=O)O)CC2` [Example 449, (1r,2′S,4S)-4-(3-chloroanilino)-2′-{3-[(3-methylpyridin-4-yl)oxy]propyl}-2′,3′-dihydrospiro[cyclohexane-1,1′-indene]-4-carboxylic acid], for which the Ki at Mcl-1 protein stood at 80 nM. Moreover, the IC50 in experiment [1] (Homo sapiens, NCI-H929, 48 h) was 9270 nM.
With `CC(C)Oc1ccc2c(c1)[C@]1(CC[C@@](Nc3cccc(Cl)c3)(C(=O)O)CC1)C(c1cccc(Oc3ccccc3)c1)C2` (single isomer, unassigned) [Example 387, (1r,4r)-4-(3-chloroanilino)-2′-(3-phenoxyphenyl)-6′-[(propan-2-yl)oxy]-2′,3′-dihydrospiro[cyclohexane-1,1′-indene]-4-carboxylic acid], on Mcl-1 protein, the Ki was found to be 220 nM. Also, the IC50 in experiment [1] (Homo sapiens, NCI-H929, 48 h) turned out to be 9590 nM.
In the same order, the values of `C[C@H]1Cc2ccccc2[C@]12CC[C@@](Nc1cccc(Br)c1)(C(=O)O)CC2` [Example 145, (1r,2′S,4S)-4-(3-bromoanilino)-2′-methyl-2′,3′-dihydrospiro[cyclohexane-1,1′-indene]-4-carboxylic acid] are 414 nM and 30000 nM.
On the same counts, the results for `O=C(O)[C@]1(Nc2cccc(Cl)c2)CC[C@@]2(CC1)c1ccccc1CC2CCCOc1ccncc1C1CC1` (some centres unmarked) [Example 464, (1r,4r)-4-(3-chloroanilino)-2′-{3-[(3-cyclopropylpyridin-4-yl)oxy]propyl}-2′,3′-dihydrospiro[cyclohexane-1,1′-indene]-4-carboxylic acid] are 49.1 nM and 14800 nM.
`O=C(O)[C@]1(Nc2cccc(Cl)c2)CC[C@@]2(CC1)c1ccccc1C[C@@H]2CCCOc1ccnc2ccsc12` [Example 440, (1r,2′S,4S)-4-(3-chloroanilino)-2′-{3-[(thieno[3,2-b]pyridin-7-yl)oxy]propyl}-2′,3′-dihydrospiro[cyclohexane-1,1′-indene]-4-carboxylic acid]: at Mcl-1 protein, the Ki was 47 nM. For the same compound, the IC50 in experiment [1] (Homo sapiens, NCI-H929, 48 h) was found to be 3480 nM.
For the compound `CC(C)C(COc1ccccc1)CC1Cc2ccccc2[C@]12CC[C@@](Nc1cccc(Cl)c1)(C(=O)O)CC2` (single isomer, unassigned) [Example 530, (1r,4r)-4-(3-chloroanilino)-2′-[3-methyl-2-(phenoxymethyl)butyl]-2′,3′-dihydrospiro[cyclohexane-1,1′-indene]-4-carboxylic acid], the Ki at Mcl-1 protein worked out at 2050 nM. For the same compound, the IC50 in experiment [1] (Homo sapiens, NCI-H929, 48 h) was 15300 nM.
In the same order, the values of `CC[C@H](COc1ccnc2ccsc12)C[C@@H]1Cc2ccccc2[C@]12CC[C@@](Nc1cccc(Cl)c1)(C(=O)O)CC2` [Example 536, (1r,2′R,4R)-4-(3-chloroanilino)-2′-[(2S)-2-{[(thieno[3,2-b]pyridin-7-yl)oxy]methyl}butyl]-2′,3′-dihydrospiro[cyclohexane-1,1′-indene]-4-carboxylic acid] are 2100 nM and 17200 nM.
In the same order, the values of `C[C@@H](COc1ccncc1C1CC1(C)C)C[C@H]1Cc2ccccc2[C@]12CC[C@@](Nc1cccc(Cl)c1)(C(=O)O)CC2` (stereo partly drawn) [Example 580, (1r,2′S,4S)-4-(3-chloroanilino)-2′-[(2R)-3-{[3-(2,2-dimethylcyclopropyl)pyridin-4-yl]oxy}-2-methylpropyl]-2′,3′-dihydrospiro[cyclohexane-1,1′-indene]-4-carboxylic acid] are 92.7 nM and 5120 nM.

The values are drawn from patent publication US20240150293A1, “SPIROCYCLOHEXANE DERIVATIVES, PHARMACEUTICAL COMPOSITIONS CONTAINING THEM AND THEIR USES AS ANTI-APOPTOTIC INHIBITORS” (LES LABORATOIRES SERVIER, priority 2021, published 2024).
